Assay results from a melting point compilation (Tetko et al.; mined from patent text by program, amines drawn as free bases though some values may be those of a salt).

Row | melting point [°C] | SMILES
1 | 161 to 163 | CC(=O)C1CCC2C3CCC4=CC(=O)C=CC4(C)C3=CCC12C (stereo not drawn)
2 | 178 to 180 | O=C(O)CCNC(=O)c1ccc(N(Cc2ccc(C3=CCCCC3)cc2)C(=O)C=Cc2cccc(OC(F)(F)F)c2)cc1
3 | 193 to 194 | Cc1ccc(C(=O)NC(NC(=NC#N)Nc2cccc(F)c2)C(C)(C)C)cc1 (stereo not drawn)
4 | 266 to 268 | Oc1ccc(-c2n[nH]c3c2Cc2ccccc2-3)cc1
5 | 198 to 205 | Cn1cc2c(nc(NC(=O)Nc3ccc(CC(=O)NCCCNC(=O)OC(C)(C)C)cc3)n3nc(-c4ccco4)nc23)n1
6 | 212 to 214 | c1ccc(-c2cccn3cnnc23)nc1
7 | > 300 | Nc1nc2c(nc(Br)n2Cc2cccnc2)c(=O)[nH]1
8 | 206 to 209 | CC(C)NC(=O)Nc1ccnnc1
9 | 87 to 88 | O=C(O)CCSc1cccc(Br)c1
10 | 212 to 214 | CC(CC#CCN1CCN(C)CC1)C(=O)N1c2ccccc2C(=O)Nc2cccnc21 (stereo not drawn)
11 | 156 to 157 | CC(C)(NC(=O)CNC(=O)c1ccccc1)c1ccccc1
12 | > 270 | Cc1cc(C(=N)N)ccc1N1CCN(c2ccc(CCC(=O)O)cc2)C1=O
13 | 213 to 216 | O=C(O)C1=Cc2cc(Cl)c(Oc3cccnc3Cl)cc2OC1C(F)(F)F (stereo not drawn)
14 | 171 to 173 | O=C(O)c1cc2c(OC[C@@H](O)CN3CCC(c4ccc5ccccc5c4)CC3)cccc2[nH]1
15 | 250 to 252 | CNC(=O)[C@H](Cc1cncn1C)NC(=O)C(Cc1cccc2ccccc12)Cc1cccc2ccccc12
16 | 95 to 97 | O=C(Nc1ccc(Oc2ccnc(NCCN3CCCC3)n2)c2ccccc12)c1cc(F)cc(N2CCOCC2)c1
17 | 104 to 106 | Cc1coc2c1C(=O)CC(c1ccccc1)C2 (stereo not drawn)
18 | 144 to 146 | CCCc1c(C(=O)NCc2ccc3c(Br)c(OCC(=O)OC)ccc3c2)cnn1-c1ccccc1
19 | 67 to 68 | CC(=O)OCC[Si](c1ccccc1)(c1ccccc1)c1ccccc1
20 | 183 to 184 | CCCc1nc2c(N)nc3cc(OCc4ccc(Cl)c(Cl)c4)ccc3c2n1CC(C)C
21 | 123 to 124 | OC(CCCc1ccc(Cl)cc1)(Cc1ccc(Cl)cc1)c1ccc(OCc2ccc3ccccc3n2)cc1 (stereo not drawn)
22 | 95 to 96 | COc1cc2c(cc1OCc1ccccc1)CCCCC2=O
23 | 255 to 257 | O=C(O)c1cccc(-c2ccc(Cl)c(C(=O)NCC34CC5CC(CC(C5)C3)C4)c2)c1
24 | 67 | CC(=O)CC(C)c1ccc(-c2ccccc2)cc1 (stereo not drawn)

Row | melting point [°C] | SMILES
25 | 278 to 280 | O=S(=O)(Nc1c(Cl)cccc1Cl)c1nc2ncccn2n1
26 | 120 | Cc1sc(S(N)(=O)=O)cc1[N+](=O)[O-]
27 | 68 to 68.5 | CCOC(=O)NC1Cc2ccccc2C1
28 | 115 to 116 | CC(C(=O)C=Cc1ccc(Cl)cc1)n1cncn1 (stereo not drawn)
29 | 194 to 196 | CC(C)c1ccnc(C(=O)c2[nH]c3cc(Cl)ccc3c2CC(=O)O)c1
30 | 185 to 186 | CCCCNC(=O)NS(=O)(=O)c1cc2c(cc1OC)OCC(NC(=O)c1cc(Cl)ccc1OC)C2 (stereo not drawn)
31 | 118 to 119 | COC(=O)c1cnc(NC(C)C)nc1C
32 | 57 to 58 | Cc1cc(C(=O)C2=NOC(c3cc(Cl)cc(Cl)c3)(C(F)(F)F)C2)ccc1S(=O)(=O)NCc1ccccn1 (stereo not drawn)
33 | 279 to 280 | Cn1c2ccccc2c2c(N)c3c(nc21)C=CC3=O
34 | 45 to 46 | CCCc1c(OCCCOc2c(C(C)=O)ccc(OCC(=O)OCC)c2CCC)ccc(C(C)=O)c1O
35 | 215 to 216 | O=Cc1c2ccccc2c(Br)c2ccccc12
36 | 91 | CC(C)(C)Sc1cccc(C(F)(F)F)c1S(N)(=O)=O
37 | 51 to 53 | Fc1c(F)c(F)c(CSc2nc3ccccc3s2)c(F)c1F
38 | 91 to 92 | NC(=O)N(O)CCOCc1cccs1
39 | 214 to 215 | Cc1c(N2C[C@@H](N)[C@@H](C)C2)c(F)c(N)c2c(=O)c(C(=O)O)cn(C3CC3)c12 (relative stereo)
40 | 207 to 209 | CC1(c2ccc(Oc3nc4ccc(Cl)cc4s3)cc2)OC(=O)N(Nc2ccccc2)C1=O (stereo not drawn)
41 | 70 to 72 | CCOC(=O)CCCCNc1ncc([N+](=O)[O-])cc1[N+](=O)[O-]
42 | 295 to 303 | O=c1[nH]c(-c2ccccc2)c(F)c(=O)n1-c1ccc(OC(F)(F)F)cc1
43 | 146 to 147 | O=C(Nc1c(OCc2ccccc2)cc(Br)cc1[N+](=O)[O-])C(F)(F)F
44 | 191 to 192 | CN(C)Cc1c(-c2ccccc2)[nH]c2nccnc12
45 | 125 to 126 | BrCc1cccc2c(-c3ccccc3)onc12
46 | 53 to 68 | CCCSC1=Nc2cc(C(=O)O)ccc2SN1Cc1ccc(-c2ccccc2C#N)cc1
47 | 175 to 179 | CCOC(=O)c1cnc2nc(OCC)ccc2c1O
48 | 229 | NC(=O)c1ccc(F)c2c1CC(N)CO2 (stereo not drawn)

Row | melting point [°C] | SMILES
49 | 192 to 194 | CN(C)C(=O)CCc1c2n(c(=O)c3ccccc13)CCc1ccccc1-2
50 | 151 to 152 | Nc1sc2c(c1C(=O)c1ccc(OCc3ccccc3)cc1)CCN(C(=O)OCc1ccccc1)C2
51 | 190 to 195 | Cc1noc(NS(=O)(=O)c2ccc(NC(=O)NC3CCCCC3)cc2)c1C
52 | 103 to 105 | CC(C)c1cc(C(C)C)c(CC(=O)NS(=O)(=O)Oc2c(C(C)C)cc(NS(=O)(=O)c3cccc4c(N(C)C)cccc34)cc2C(C)C)c(C(C)C)c1
53 | 236 to 238 | CNC(=O)n1cc(Br)cnc1=O
54 | 40 | COC(=O)/C=C(\Cl)c1ccc(Cl)cc1
55 | 101 to 102 | COc1cnccc1CCCOc1cccnc1Oc1ccccc1
56 | 118 to 119 | NCc1noc(-c2nn(Cc3ccccc3)c3ccccc23)n1
57 | 236 to 238 | CC(=O)Nc1cc(=O)c2cc(Oc3ccccc3)c(NS(C)(=O)=O)cc2o1
58 | 71 to 73 | COc1cc(OC)nc(C(=O)c2cccnc2C(=O)O)n1
59 | 155 to 157 | CN(C)CCC1CCCCN1CC(=O)N1c2ccccc2NC(=O)c2ccccc21 (stereo not drawn)
60 | 87 to 89 | CC(C)N1C(=O)NC(c2ccc3c(c2)OCO3)c2cc3c(cc21)OCO3 (stereo not drawn)
61 | 141 to 144 | Nc1nc(I)nc2c1ncn2C1OC(CO)C(O)C1O (stereo not drawn)
62 | 258 to 259 | Cc1[nH]c(C#N)c(C)c1-c1ccnc(Nc2cccc([N+](=O)[O-])c2)n1
63 | 141 to 142 | Cc1cccc(-c2nc(NC(=O)Nc3ccccc3)sc2-c2ccnc(C)n2)c1
64 | 134 to 135 | Fc1ccc(-c2ccn(CC3CCCNC3)c2-c2ccncc2)cc1 (stereo not drawn)
65 | 115 to 116 | CCOC(=O)C1=Cc2cc(Cl)cc(C#N)c2OC1C(F)(F)F (stereo not drawn)
66 | 178 | O=C(Nc1nc2ccc(OCc3c(Cl)cccc3Cl)cc2s1)C1CC1
67 | 149 to 150 | CCOCCNC(=O)c1ccn2nc(-c3ccccc3)c(-c3ccc(=O)n(C(C)C)n3)c2c1
68 | 251 | CCNC(=O)CC1CCN(Cc2cnc3cc(NC(=O)c4ccc(-c5ccc(F)cc5)cc4)c(C)cc3c2)CC1
69 | 115 to 117 | CN(CCCC(=O)Nc1ccc2[nH]ncc2c1)Cc1ccccc1
70 | 154 to 155 | CC(C)c1cccc(C(C)C)c1NC(=O)CNC(c1ccccc1)c1ccc(Br)cc1 (stereo not drawn)
71 | 246 | CCOC(=O)c1cn2c3c(c(-c4ccccc4)ccc3c1=O)OCC2C (stereo not drawn)
72 | 171 to 174 | CC1(C)CC(=O)c2c(-c3ccccn3)cn(-c3ccccn3)c2C1

Row | melting point [°C] | SMILES
73 | > 280 | O=c1c2n[nH]c3ccc(Cl)cc3c-2nn1-c1ccccc1
74 | 87 to 88 | COC(=O)CC/C(C)=C/Cc1c(C#N)c2c(c(C)c1OC)COC2=O
75 | 150 to 152 | CC(C)Nc1n[nH]c(=O)n1N
76 | 283 to 286 | COc1ccc2c(c1)c1c3c(c(-c4ccccc4Cl)cc1n2CCC(N)=O)C(=O)NC3=O
77 | 64 to 65 | CCc1nc(CCc2cccc(N)c2)sc1C
78 | 74 to 76 | CC(=NNCCc1ccccc1)C(=O)O
79 | 220 | COc1cc2c(cc1OC)CN(CCCOc1ccc(NC(=O)c3cccc4c(=O)c5ccccc5[nH]c34)cc1)CC2
80 | 107 to 108 | COc1ccc(OCCCN2CCC(C(O)(c3ccc(F)cc3)c3ccc(F)cc3)CC2)cc1
81 | 303 to 306 | O=c1[nH]c2cc(Cl)ccc2c(O)c1-c1cccc(Oc2ccccc2)c1
82 | 143 | COc1ccc2c(c1)CC(C(=O)NCc1ccc(C(=O)O)cc1)N2S(=O)(=O)c1ccc(-c2ccc(F)cc2F)cc1 (stereo not drawn)
83 | 78 to 81 | CN(C)c1cc2ccc(OCc3ccccc3)cc2s1
84 | 116 to 118 | CCC1Cc2cc3c(cc2C(c2ccc([N+](=O)[O-])cc2)O1)OCO3 (stereo not drawn)
85 | 61 | Cc1cccc2c1Cc1ccccc1OC(C(=O)O)O2 (stereo not drawn)
86 | 158 to 159 | Cc1cc(=O)c(Oc2ccc(F)cc2F)c(-c2ccc(S(C)=O)cc2)o1 (stereo not drawn)
87 | 234 to 236 | Cc1c(NC(=O)c2ccc(-c3ccc(Cl)cc3)nc2)ccc2cc(CN3CCCC3)cnc12
88 | 108 to 110 | COC(=O)C[C@@H](CC(=O)C=Cc1c(-c2ccc(F)cc2)c(-c2ccc(F)cc2)c(C(=O)Nc2ccc(S(N)(=O)=O)cc2)n1C(C)C)O[Si](C)(C)C(C)(C)C
89 | 171 to 172 | CCc1ccc(C=C2CCCN(c3nc(C)c(C(=O)NCc4ccccc4)s3)C2=O)s1
90 | 209 to 213 | Cc1ccc2c(c1)NC(=O)c1cscc1O2
91 | 159 to 160 | OCc1c(Cl)nc2ccccc2c1-c1ccc(F)cc1
92 | 132 | Cc1cc(C)n(C(=N)NC(=S)Nc2cccnc2)n1
93 | 110 to 111 | COc1cccc(-n2ccc(=O)c(-c3ccnn3-c3ccccc3)n2)c1

Row | SMILES | melting point [°C]
94 | OC1C2=C(CCN(CCCCc3c[nH]c4ccccc34)C2)c2ccccc21 (stereo not drawn) | 205 to 208
95 | CN1CCN(c2cc(N)ccc2F)CC1 | 155 to 156
96 | CCN(CC)CCNc1cc(Cl)c(N)c(CCN(CC)CC)c1[N+](=O)[O-] | 90
97 | N#Cc1nn(-c2c(Cl)cc(C(F)(F)F)cc2Cl)cc1C(=O)C(F)(F)C(F)(F)F | 120
98 | Cn1cnc([N+](=O)[O-])c1CBr | 130 to 132
